For data set [1] the following is noted: cited from earlier work.
Data set [2] relates to HBV. As to conditions: cited from earlier work; for cumulative rate of resistance: in 5 years.
The test system of data set [3] is HBV. Briefly: Viral dynamic analyses of serum HBV DNA under lamivudine therapy (model fit and simulation). Also noted: species or system human. As to conditions: estimate (standard error). The text has this: The HBV DNA data used in the unique assessments disclosed herein of HBV viral dynamics under lamivudine therapy were obtained from the previously published lamivudine dose-response curves (FIG. 1). […] Therefore, for the viral dynamic analyses, only data up to day 15 were used.
The digitalized data were converted to percent change from baseline as (Vt-V0)/V0 and further presented as Vt/V0, where V0 and Vt are the HBV DNA data at baseline and at time t after treatment initiation, respectively. The viral dynamic model as illustrated below was fitted to the Vt/V0 vs. time data: Vt /V0 = [(ε*u-a)/(u-a)]*exp(-u*t) + [(1-ε)*u/(u-a)]*exp(-a*t) [formula] where u is the clearance rate constant of free virions; a is the clearance rate constant of infected cells; ε is the inhibition efficacy.
Table 3. Exemplary viral dynamic parameter estimates (standard error) of lamivudine
These analyses are illustrated in FIG. 2.
Table 4. Examples of model predicted HBV DNA reduction from baseline on long10 scale (% change)

In data set [4] the test system is HBV. Briefly: Emax modeling of predicted day 29 HBV DNA reduction versus lamivudine dose. Also noted: species or system human. As to conditions: Emax model estimate (standard error); Emax fixed to 4; day 29 predicted data. The text has this:
The predicted HBV DNA reduction data on day 29 were used for Emax modeling analyses for the purpose of defining optimal doses of lamivudine.
An Emax model in the form of E = Emax *ED50^h /(D^h+ED50^h) [formula] where E and Emax are the viral response with dose D and maximum viral response respectively; ED50 is the dose resulting in 50% of viral response; h is the Hill parameter. The maximum reduction of HBV NDA at 4 weeks achievable by a nucleoside/nucleotide antiviral is approximately 4 log10. (Buti et al. J. Hepatol. 39: S139-S142, 2003.) Therefore, in the Emax modeling herein, Emax was fixed to 4.
Using these estimates, viral responses at untested doses were predicted and results are illustrated in FIG. 3 and presented in Table 5.

Data set [5] concerns HBV. As to conditions: day 29, 100 mg/day dose; no additional benefits with 300 mg or 600 mg; cited from earlier work.

Read-outs that look alike come from different tables or passages of the source. Some results are limits rather than exact numbers.

Take `CC(C)(C)C(=O)OCOP(=O)(COCCn1cnc2c(N)ncnc21)OCOC(=O)C(C)(C)C` [adefovir dipivoxil, 9-[2-[[bis[(pivaloyloxy)methoxy]-phosphinyl]-methoxy]ethyl]adenine]: in data set [1] (10 mg per day, 4-5 years, patients with compensated liver disease), the “cumulative rate of nephrotoxicity” value is listed as 3%. The “adefovir-associated nephrotoxicity (patients)” value in data set [1] (decompensated liver disease and liver transplantation, treatment periods of 39-99 weeks) is given as “up to 47%”. In addition, the “cumulative rate of resistance” value in data set [2] (HBeAg negative patients) was 29%; in data set [2] (HBeAg positive patients) it was “about 20%”. In addition, the 5-year resistance rate in data set [2] (monotherapy) is listed as 20-30%.

With `Nc1ccn([C@@H]2CS[C@H](CO)O2)c(=O)n1` (relative stereo) [lamivudine, (2R,cis)-4-amino-1-(2-hydroxymethyl-1,3-oxathiolan-5-yl)-(1H)-pyrimidin-2-one], the “e (inhibition efficacy)” value was 0.6193 (0.0369) in data set [3] (lamivudine 5 mg/day); 0.8186 (0.0374) in data set [3] (lamivudine 20 mg/day); 0.8173 (0.0254) in data set [3] (lamivudine 100 mg/day); 0.8463 (0.0087) in data set [3] (lamivudine 300 mg/day); 0.8673 (0.0248) in data set [3] (lamivudine 600 mg/day). In addition, in data set [4], the “ED50 (dose resulting in 50% of viral response)” value is 101.5 (29.04) mg. Besides, in data set [5], the “maximal observed viral suppression (median, from baseline)” value is not below 98%.

Source of the values: patent publication EP2519243B1, “COMPOSITIONS AND METHODS FOR TREATING HEPATITIS B VIRUS INFECTION” (priority 2009, dated 2011).
